According to patent US20060160811A1, “Aryl-condensed 3-arylpridine compounds and use thereof for controlling pathogenic fungi” (priority 2003, published 2006):

system: Leptosphaeria nodorum; assay: Activity against leaf blotch on wheat caused by Leptosphaeria nodorum, protective application; format: in vivo; conditions: protective spray, wheat cultivar Kanzler, inoculated next day, visual rating after 8 days, untreated control 80%
Procedure: The active compounds were prepared as a stock solution with 0.25% by weight of active compound in acetone or DMSO (dimethyl sulfoxide). 1% by weight of the emulsifier Uniperol® EL (wetting agent having emulsifying and dispersing action based on ethoxylated alkylphenols) was added to this solution, and the solution was diluted with water to the desired concentration.
Activity against leaf blotch on wheat caused by Leptosphaeria nodorum, protective application.
Pots with wheat plants of the cultivar “Kanzler” were sprayed to runoff point with an aqueous suspension having the concentration of active compound stated below. The next day, the pots were inoculated with an aqueous spore suspension of Leptosphaeria nodorum. The plants were then placed in a chamber at 20° C. and maximum atmospheric humidity. After 8 days, the leaf blotch on the untreated but infected control plants had developed to such an extent that the degree of infection could be determined visually in %.

| SMILES | Leaf infection [%] at 250 ppm [%] |
| --- | --- |
| Oc1nc2nccnc2c(O)c1-c1c(F)cc(F)cc1F | 10 |
| CC1CCN(c2nc3ncncc3c(Cl)c2-c2c(F)cc(F)cc2F)CC1 | 3 |
| Fc1cc(F)c(-c2c(Cl)nc3ncncc3c2Cl)c(F)c1 [drawing 26] | 3 |

system: not given; assay: not given; conditions: not given

| melting point | SMILES |
| --- | --- |
| 348 °C (dec.) | Oc1nc2ncncc2c(O)c1-c1c(F)cc(F)cc1F [Example 1, 6-(2,4,6-Trifluorophenyl)pyrido[2,3-d]pyrimidine-5,7-diol] |
| 169 °C | Fc1cc(F)c(-c2c(Cl)nc3ncncc3c2Cl)c(F)c1 [Example 2, 5,7-Dichloro-6-(2,4,6-trifluorophenyl)pyrido[2,3-d]pyrimidine] |
| 268 °C | CC1CCN(c2c(-c3c(F)cc(F)cc3F)c(O)nc3ncncc23)CC1 [Example 8, 5-(4-Methylpiperidin-1-yl)-6-(2,4,6-trifluorophenyl)pyrido[2,3-d]pyrimidin-7-ol] |
| 315 °C | Cc1ccc2c(O)c(-c3c(F)cc(F)cc3F)c(C)nc2n1 [Example 5, 2,7-Dimethyl-3-(2,4,6-trifluorophenyl)-[1,8]naphthyridin-4-ol] |
| 146 °C | Fc1cc(F)c(-c2c(OCc3ccccc3)nc3ncncc3c2Cl)c(F)c1 (hydrate or solvate) [Example 3, 7-Benzyloxy-5-chloro-6-(2,4,6-trifluorophenyl)pyrido[2,3-d]pyrimidine] |
